Legend:
[1] = Hydrodynamic diameter of complexes by dynamic light scattering (DLS); type: physicochemical
Procedure: Sizes of complexes described in the present examples were analyzed by DynaPro PlateReader II, using dynamic light scattering (DLS) for calculating the hydrodynamic diameter of complexes. The formulations are measured by diluting the sample to 0.0125 mg/mL RNA in 120 μl of MGB (10 mM MES, pH 6.1, 5% D-Glucose) 5% in wells of a 96-well plate. Ten acquisitions are recorded per well, each lasting 5 seconds.

[2] = system: Glycoprotein (Gc) of the Crimean-Congo Hemorrhagic Fever Virus (CCHFV); type: in vivo
[3] = system: female BALB/c mice; assay: In-vivo luciferase expression (bioluminescence) in applied tissue after i.m. injection of formulated modRNA or saRNA; details: modRNA i.m., N/P 6
Procedure: Eighteen female BALB/c mice were divided into […] study groups. All groups received the same amount of formulated luciferase encoding modRNA or saRNA (1 μg), applied i.m. to each leg. At […] time points (6 hours, 24 hours, 72 hours, 6 days, 8 days, 20 days), in-vivo luciferase expression in applied tissue was measured. Three modRNA groups were formulated with JRL13 at three different N/P Ratios (1, 6, or 12) and three saRNA groups were formulated with JRL13 at three different N/P Ratios (either 1, 6 or 12). N/P ratio is calculated based on the JRL13-RNA charges ratio, as described herein. […] FIG. 4C is a bar graph illustrating quantified bioluminescence over the duration of the experiment for example compositions having indicated N/P ratios comprising modRNA and JRL13. FIG. 4D is a bar graph illustrating quantified bioluminescence over the duration of the experiment for example compositions having indicated N/P ratios comprising saRNA and JRL13.
The present example examines the impact of different cationic groups on intramuscular delivery of saRNA. […] At six time points (6 hours, 24 hours, 72 hours, 6 days, 9 days, 20 days), in-vivo luciferase expression in applied tissue was measured. […] FIG. 5B is a bar graph illustrating quantified bioluminescence over the duration of the experiment and normalized to the JRL13-saRNA group. […]

[4] = system: Influenza; assay: Virus neutralizing titers by VNT Assay after i.m. vaccination; type: in vivo, influenza strain California/7/2009; details: JLF99 + Tween20 1:0.5, HA modRNA 1 μg i.m. prime/boost d0/d28, N/P 6
From the text: The animals were subjected to non-invasive serological surveillance over 49 days at different time points (day 0, day 14, day 21, day 28, day 49) and spleen was extracted at the end of the experiment for quantification of CD4/CD8 T-Cell response to Influenza HA peptides. Anti-Influenza HA antibodies in serum were quantified by enzyme-linked immunosorbent assay. Virus neutralizing titers were quantified by VNT Assay. CD4/CD8 T-Cell response was quantified by via IFN-ELISPOT of Splenocytes. FIG. 16A illustrates serological levels of specific IgG against HA over the course of the experiment. FIG. 16B illustrates Influenza specific neutralizing titers over the course of the experiment. FIG. 16C illustrates end-point titration of the serological levels of specific IgG against HA. FIG. 16D illustrates the CD8/CD4 response against HA-peptide pools.

[5] = system: Hemagglutinin (HA) protein of the influenza strain California/7/2009; assay: Anti-Influenza HA IgG in serum by enzyme-linked immunosorbent assay after i.m. vaccination; type: in vivo; details: for IgG concentration against HA: oligosaccharide + Tween40 1:0.5, HA modRNA 0.5 μg i.m. prime/boost day 0/day 28, N/P6
[6] = system: CCHFV-Gc peptides; type: in vivo, Crimean-Congo Hemorrhagic Fever Virus; details: JLF99 + Tween40 1:0.5, Gc saRNA 1.3 μg i.m. prime/boost, C57BL/6 IFNAR −/− mice
[7] = system: hPBMCs; assay: Pro-inflammatory cytokine secretion by hPBMCs 24 hours after transfection (MSD Kit); type: cell-based, human; details: for Level of secretion of pro-inflammatory cytokines, IL-6, TNF-α, IL-1 and IFN-γ: oligosaccharide + Tween40 1:0.5, modRNA N/P 6, 24 hours, 10^6 hPBMCs
Procedure: All groups received modRNA formulated at N/P 6. Formulations were complexed with RNA in MBG Buffer (final concentration 5% w/v Glucose, 10 mM MES, pH 6.1), at RNA final concentration of 0.15 mg/ml and the mixing ratio of the RNA containing solution and the oligosaccharide+Tween40 containing solution was 9:1 (v:v) for all the cases. IL-6, TNF-α, IL-1p and IFN-γ secretion after 24 hours of transfection of 10^6 hPMBCs was evaluated in the supernatants using MSD Kit Standard Protocol.
FIG. 19A is a plot illustrating IL-6 secretion by hPBMCs upon exposure to different doses of tested formulations. FIG. 19B is a plot illustrating TNF-α secretion by hPBMCs upon exposure to different doses of tested formulations. FIG. 19C is a plot illustrating IL-1p secretion by hPBMCs upon exposure to different doses of tested formulations. FIG. 19D is a plot illustrating IFN-γ secretion by hPBMCs upon exposure to different doses of tested formulations. In the second part of the experiment, the same tested formulations were used in a vaccination study.

[8] = system: Influenza HA peptides; assay: CD4/CD8 T-Cell response to Influenza HA peptides by IFN-ELISPOT of splenocytes after i.m. vaccination; type: in vivo, influenza strain California/7/2009; details: JLF99 + Tween20 1:0.5, HA modRNA 1 μg i.m. prime/boost d0/d28, N/P 6
[9] = JLF99 + Tween20 1:0.5, HA modRNA 1 μg i.m. prime/boost d0/d28, N/P 6

CCCCCCCCCC(=O)OC1C(OC(=O)CCCCCCCCC)[C@H](OC(=O)CCCCCCCCC)C(CSCCNC(=S)NCCN(C)C)O[C@@H]1O[C@H]1OC(CSCCNC(=S)NCCN(C)C)[C@@H](OC(=O)CCCCCCCCC)C(OC(=O)CCCCCCCCC)C1OC(=O)CCCCCCCCC (stereo partly drawn) [JLF41]
Difference in particle size between N/P 1 and N/P 6 ([1]; modRNA): greater difference

CCCCCCCCCC(=O)OC1C(OC(=O)CCCCCCCCC)[C@H](OC(=O)CCCCCCCCC)C(CSCCNC(=S)NCCN2CCOCC2)O[C@@H]1O[C@H]1OC(CSCCNC(=S)NCCN2CCOCC2)[C@@H](OC(=O)CCCCCCCCC)C(OC(=O)CCCCCCCCC)C1OC(=O)CCCCCCCCC (stereo partly drawn) [JLF99]
Immunological response to low immunogenic antigen CCHFV-Gc ([2]; JLF99 + Tween40 1:0.5, Gc saRNA 1.3 μg i.m. prime/boost d0/d28, N/P6, C57BL/6 IFNAR −/− mice): strong immunological response
Antibody levels versus LNP benchmark ([2]; after d28 (prior boost), JLF99 + Tween40 1:0.5, Gc saRNA 1.3 μg i.m., C57BL/6 IFNAR −/− mice): identical to the ones achieved by the LNP benchmark
Antibody level versus LNP benchmark ([2]; d14, JLF99 + Tween40 1:0.5, Gc saRNA 1.3 μg i.m., C57BL/6 IFNAR −/− mice): lower than the LNP
modRNA expression (bioluminescence normalized to the JLF41-modRNA group) [3]: promising modRNA expression
Virus neutralizing titers versus LNP benchmark [4]: same findings
IgG against HA-antigen over the course of the experiment versus LNP benchmark [5, 9]: no apparent differences
Serological concentration of IgG at the end-point (day 49) [5, 9]: comparable to the LNP group
Delivery of and immune response to different RNA platforms ([5]; JLF99 + Tween20 1:0.5, taRNA, saRNA or modRNA 1 μg i.m. prime/boost, N/P 6): functionally delivered all the RNAs upon i.m injection and elicited a strong immune response
IgG concentration against HA [5]: then by JLF99 and JLF218
T-cell responses against Gc-peptides versus LNP benchmark [6]: equally strong
Adjuvanticity ([7]; oligosaccharide + Tween40 1:0.5, modRNA N/P 6): strong adjuvanticity
CD4-CD8 response versus LNP benchmark [8]: no significant difference
Hydrodynamic diameter ([1]; saRNA, N/P 6): about 150 nm

CCCCCCCCCC(=O)OC1C(OC(=O)CCCCCCCCC)[C@H](OC(=O)CCCCCCCCC)C(CSCCNC(=S)NCCn2ccnc2)O[C@@H]1O[C@H]1OC(CSCCNC(=S)NCCn2ccnc2)[C@@H](OC(=O)CCCCCCCCC)C(OC(=O)CCCCCCCCC)C1OC(=O)CCCCCCCCC (stereo partly drawn) [JLF110]
Level of secretion of pro-inflammatory cytokines, IL-6, TNF-α, IL-1 and IFN-γ [7]: medium levels of secretion

CCCCCCCCCC(=O)OC[C@@]1(O[C@H]2OC(CSCCNC(=S)NCCN3CCOCC3)[C@@H](OC(=O)CCCCCCCCC)C(OC(=O)CCCCCCCCC)C2OC(=O)CCCCCCCCC)O[C@H](CSCCNC(=S)NCCN2CCOCC2)[C@@H](OC(=O)CCCCCCCCC)[C@@H]1OC(=O)CCCCCCCCC (stereo partly drawn) [JLF218]
IgG concentration against HA [5]: then by JLF99 and JLF218

CCCCCCCCCC(=O)OC1C(OC(=O)CCCCCCCCC)[C@H](OC(=O)CCCCCCCCC)C(CSCCNC(=S)NCCN2CCC(C(N)=O)CC2)O[C@@H]1O[C@H]1OC(CSCCNC(=S)NCCN2CCC(C(N)=O)CC2)[C@@H](OC(=O)CCCCCCCCC)C(OC(=O)CCCCCCCCC)C1OC(=O)CCCCCCCCC (stereo partly drawn) [JLF244]
IgG concentration against HA [5]: highest IgG concentration
Level of secretion of pro-inflammatory cytokines, IL-6, TNF-α, IL-1 and IFN-γ [7]: highest level of secretion

— patent US20240425541A1, “OLIGOSACCHARIDE COMPOUNDS AND COMPLEXES” (priority 2021, published 2024)
